Results on 21 molecules are retold here after patent US10287255B2, “Compounds as histone deacetylase 6 inhibitors and pharmaceutical compositions comprising the same” (CHONG KUN DANG PHARMACEUTICAL CORP., priority 2014, dated 2019).

The target of one assay is T1, human recombinant HDAC6 (Homo sapiens, UniProt Q9UBN7).
T1 construct: purchased Calbiochem 382180
T1 sequence (Q9UBN7 1-1215): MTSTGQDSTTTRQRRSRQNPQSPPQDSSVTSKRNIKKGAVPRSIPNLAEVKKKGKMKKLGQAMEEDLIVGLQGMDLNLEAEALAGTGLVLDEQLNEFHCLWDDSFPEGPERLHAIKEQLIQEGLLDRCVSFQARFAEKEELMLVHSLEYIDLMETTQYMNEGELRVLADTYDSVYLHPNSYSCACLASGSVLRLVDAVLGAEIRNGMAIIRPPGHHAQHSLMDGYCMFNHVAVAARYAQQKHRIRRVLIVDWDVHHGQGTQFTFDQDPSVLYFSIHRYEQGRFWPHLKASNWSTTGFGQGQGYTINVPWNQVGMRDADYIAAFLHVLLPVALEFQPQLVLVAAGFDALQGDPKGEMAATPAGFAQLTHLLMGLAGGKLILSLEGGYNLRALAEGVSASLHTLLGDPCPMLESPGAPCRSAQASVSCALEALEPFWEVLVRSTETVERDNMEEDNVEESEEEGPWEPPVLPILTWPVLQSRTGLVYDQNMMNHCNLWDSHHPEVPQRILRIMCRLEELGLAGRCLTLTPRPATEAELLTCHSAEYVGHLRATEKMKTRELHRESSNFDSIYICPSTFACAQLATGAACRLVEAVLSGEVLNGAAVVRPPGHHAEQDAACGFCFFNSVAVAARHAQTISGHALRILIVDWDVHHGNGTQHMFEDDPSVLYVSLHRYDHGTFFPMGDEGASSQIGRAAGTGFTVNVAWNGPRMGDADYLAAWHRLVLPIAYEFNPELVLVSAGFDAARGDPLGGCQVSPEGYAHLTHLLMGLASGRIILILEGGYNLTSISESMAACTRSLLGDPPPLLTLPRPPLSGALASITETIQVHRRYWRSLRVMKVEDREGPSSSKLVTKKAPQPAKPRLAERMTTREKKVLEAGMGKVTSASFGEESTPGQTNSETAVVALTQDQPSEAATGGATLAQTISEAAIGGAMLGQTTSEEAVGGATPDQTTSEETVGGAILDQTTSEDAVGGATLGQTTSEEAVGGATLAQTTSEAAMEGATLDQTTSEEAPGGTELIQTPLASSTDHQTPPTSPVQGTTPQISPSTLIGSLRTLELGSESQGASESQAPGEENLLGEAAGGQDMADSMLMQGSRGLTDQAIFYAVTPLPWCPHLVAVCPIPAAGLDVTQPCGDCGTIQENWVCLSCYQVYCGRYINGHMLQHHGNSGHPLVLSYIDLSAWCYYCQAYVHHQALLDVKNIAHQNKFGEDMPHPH
In words: HDAC6 enzyme activity inhibition assay (in vitro, fluorimetric). In kind it is biochemical. The conditions noted are these: for HDAC6 selectivity (fold): HDAC6 selectivity over HDAC1; for IC50: human recombinant HDAC6, fluorimetric kit, same protocol as HDAC1. Summed up:
(§1)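 Human recombinant enzyme (0.3 μg for HDAC1) reacted with 10 μM Fluor de Lys-SIRT1 substrate and 5-fold compound dilutions at 30 °C for 60 min, then developer for 30 min. Fluorescence read at Ex 360/Em 460; IC50 calculated. HDAC6 run by the same protocol.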

For a further assay, the target named is T2, human recombinant HDAC1 (Homo sapiens, UniProt Q13547).
T2 construct: purchased Enzo Life Science BML-SE456
T2 sequence (Q13547 whole entry): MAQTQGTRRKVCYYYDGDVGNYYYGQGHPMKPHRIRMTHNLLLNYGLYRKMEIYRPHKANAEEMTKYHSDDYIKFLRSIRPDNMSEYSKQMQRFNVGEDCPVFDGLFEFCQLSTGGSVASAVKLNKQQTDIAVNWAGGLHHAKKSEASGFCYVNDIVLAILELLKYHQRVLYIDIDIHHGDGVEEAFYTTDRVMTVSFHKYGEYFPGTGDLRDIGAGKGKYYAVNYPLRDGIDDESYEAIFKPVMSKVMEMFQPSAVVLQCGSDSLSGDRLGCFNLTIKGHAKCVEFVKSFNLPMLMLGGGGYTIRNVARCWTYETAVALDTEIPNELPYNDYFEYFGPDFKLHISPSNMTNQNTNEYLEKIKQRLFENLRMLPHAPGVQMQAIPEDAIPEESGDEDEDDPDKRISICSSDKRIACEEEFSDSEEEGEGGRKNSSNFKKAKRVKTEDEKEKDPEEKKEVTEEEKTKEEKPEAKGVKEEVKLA
In words: HDAC1 enzyme activity inhibition assay (in vitro, fluorimetric). The assay is classed as biochemical. Particulars: human recombinant HDAC1, fluorimetric kit, 30° C. 60 minutes. Summed up: as §1

For orientation: IC50 means the midpoint of a concentration-inhibition curve.

Regarding `C[C@@H]1CN(Cc2ccc(C(=O)NO)cc2)C[C@H](C)N1Cc1ccncc1` [Compound 266, 4-(((3R,5S)-3,5-dimethyl-4-(pyridin-4-ylmethyl)piperazin-1-yl)methyl)-N-hydroxybenzamide], the “HDAC6 selectivity (fold)” value on human recombinant HDAC6 is recorded as 68 fold. For the same molecule, the IC50 at human recombinant HDAC6 was determined as 0.282 µM; at human recombinant HDAC1 it was 19.1 µM.
On the same counts, the results for `C[C@@H]1CN(Cc2ccccc2-c2cccnc2)C[C@H](C)N1Cc1ccc(C(=O)NO)cc1` [Compound 349, 4-(((2S,6R)-2,6-dimethyl-4-(2-(pyridin-3-yl)benzyl)piperazin-1-yl)methyl)-N-hydroxybenzamide] are 1000 fold, 0.005 µM and 5 µM.
The like results for `CCN(CC)C[C@@H](C)NCc1cccc(CN2[C@H](C)CN(Cc3ccc(C(=O)NO)cc3)C[C@@H]2C)c1` [Compound 455, 4-(((3R,5S)-4-(3-(((1-(diethylamino)propan-2-yl)amino)methyl)benzyl)-3,5-dimethylpiperazin-1-yl)methyl)-N-hydroxybenzamide] were, in that order, 93 fold, 0.103 µM and 9.6 µM.
On the same counts, the results for `C[C@@H]1CN(Cc2ccc(C(=O)NO)cc2)C[C@H](C)N1C(=O)C1CC1` [Compound 295, 4-(((3R,5S)-4-(cyclopropanecarbonyl)-3,5-dimethylpiperazin-1-yl)methyl)-N-hydroxybenzamide] are 72 fold, 0.079 µM and 5.7 µM.
Take `CCCN1[C@H](C)CN(Cc2ccc(C(=O)NO)cc2)C[C@@H]1C` [Compound 148, 4-(((3R,5S)-3,5-dimethyl-4-propylpiperazin-1-yl)methyl)-N-hydroxybenzamide]: at human recombinant HDAC6, the “HDAC6 selectivity (fold)” value is on record as 132 fold and the IC50 was found to be 0.117 µM. For the same molecule, the IC50 at human recombinant HDAC1 was 15.4 µM.
Regarding `C[C@@H]1CN(Cc2ccc(C(=O)NO)cc2)C[C@H](C)N1Cc1cccc(Cl)c1` [Compound 128, 4-(((3R,5S)-4-(3-chlorobenzyl)-3,5-dimethylpiperazin-1-yl)methyl)-N-hydroxybenzamide], on human recombinant HDAC6, the “HDAC6 selectivity (fold)” value turned out to be 5540 fold and the IC50 worked out at 0.002 µM. Moreover, the IC50 on human recombinant HDAC1 worked out at 11.1 µM.
On the same counts, the results for `CC(CN(C)Cc1ccccc1)NCc1cccc(CN2[C@H](C)CN(Cc3ccc(C(=O)NO)cc3)C[C@@H]2C)c1` (stereo partly drawn) [Compound 456, 4-(((3R,5S)-4-(3-(((1-(benzyl(methyl)amino)propan-2-yl)amino)methyl)benzyl)-3,5-dimethylpiperazin-1-yl)methyl)-N-hydroxybenzamide] are 77 fold, 0.144 µM and 11.1 µM.
On the same counts, the results for `CC(C)CCN1C[C@@H](C)N(Cc2ccc(C(=O)NO)cc2)[C@@H](C)C1` [Compound 271, N-hydroxy-4-(((2S,6R)-4-isopentyl-2,6-dimethylpiperazin-1-yl)methyl)benzamide] are under 13 fold, over 1 µM and 12.5 µM.
In the case of `C[C@@H]1CN(C(=O)NCc2ccccc2)C[C@H](C)N1Cc1ccc(C(=O)NO)cc1` [Compound 168, (3R,5S)-N-benzyl-4-(4-(hydroxycarbamoyl)benzyl)-3,5-dimethylpiperazine-1-carboxamide], on human recombinant HDAC6, the “HDAC6 selectivity (fold)” value is given as 7 fold and the half-maximal inhibitory concentration (IC50) was 0.316 µM. For the same molecule, the IC50 on human recombinant HDAC1 is 2.2 µM.
Regarding `C[C@@H]1CN(Cc2ccc3cc(C(=O)NO)[nH]c3c2)C[C@H](C)N1Cc1ccccc1` [Compound 573, 6-(((3R,5S)-4-benzyl-3,5-dimethylpiperazin-1-yl)methyl)-N-hydroxy-1H-indole-2-carboxamide], on human recombinant HDAC6, the “HDAC6 selectivity (fold)” value came to 36 fold and the IC50 was 1.44 µM. Besides, the IC50 on human recombinant HDAC1 is over 10 µM.
With `C[C@@H]1CN(Cc2ccc(C(=O)NO)cc2)C[C@H](C)N1C(=O)c1cccs1` [Compound 126, 4-(((3R,5S)-3,5-dimethyl-4-(thiophene-2-carbonyl)piperazin-1-yl)methyl)-N-hydroxybenzamide], at human recombinant HDAC6, the “HDAC6 selectivity (fold)” value amounted to 1525 fold and the IC50 turned out to be 0.004 µM. In addition, at human recombinant HDAC1, the IC50 was 6.1 µM.
On to `C[C@@H]1CN(Cc2ccc(C(=O)NO)cc2)C[C@H](C)N1Cc1ccccc1` [Compound 084, 4-(((3R,5S)-4-benzyl-3,5-dimethylpiperazin-1-yl)methyl)-N-hydroxybenzamide], for which the IC50 at human recombinant HDAC6 came to 0.023 µM; at human recombinant HDAC1, 11.9 µM.
Consider `C[C@@H]1CN(CCc2ccccc2)C[C@H](C)N1Cc1ccc(C(=O)NO)cc1` [Compound 183, 4-(((2S,6R)-2,6-dimethyl-4-phenethylpiperazin-1-yl)methyl)-N-hydroxybenzamide], for which, at human recombinant HDAC6, the “HDAC6 selectivity (fold)” value is reported as over 20 fold and the IC50 turned out to be 0.5 µM. Also, at human recombinant HDAC1, the IC50 was over 10 µM.
The like results for `C[C@@H]1CN(C(=O)N(C)c2ccccc2)C[C@H](C)N1Cc1ccc(C(=O)NO)cc1` [Compound 196, (3R,5S)-4-(4-(hydroxycarbamoyl)benzyl)-N,3,5-trimethyl-N-phenylpiperazine-1-carboxamide] were, in that order, 97 fold, 0.148 µM and 14.4 µM.
For `C[C@@H]1CN(Cc2ccc(C(=O)NO)cc2)C[C@H](C)N1S(=O)(=O)c1ccccc1` [Compound 100, 4-(((3R,5S)-3,5-dimethyl-4-(phenylsulfonyl)piperazin-1-yl)methyl)-N-hydroxybenzamide], at human recombinant HDAC6, the “HDAC6 selectivity (fold)” value is over 105 fold. Further, the IC50 is 0.095 µM at human recombinant HDAC6 and over 10 µM at human recombinant HDAC1.
On to `CCN(CC)CC(C)NCc1cccc(C(=O)N2[C@H](C)CN(Cc3ccc(C(=O)NO)cc3)C[C@@H]2C)c1` (stereo partly drawn) [Compound 440, 4-(((3R,5S)-4-(3-(((1-(diethylamino)propan-2-yl)amino)methyl)benzoyl)-3,5-dimethylpiperazin-1-yl)methyl)-N-hydroxybenzamide], for which, on human recombinant HDAC6, the “HDAC6 selectivity (fold)” value was found to be 71 fold and the IC50 was determined as 0.078 µM. Besides, on human recombinant HDAC1, the IC50 is 5.6 µM.
Turning to `CC(=O)N1CCN(Cc2ccc(CN3[C@H](C)CN(Cc4ccc(C(=O)NO)cc4)C[C@@H]3C)cc2)CC1` [Compound 486, 4-(((3R,5S)-4-(4-((4-acetylpiperazin-1-yl)methyl)benzyl)-3,5-dimethylpiperazin-1-yl)methyl)-N-hydroxybenzamide], on human recombinant HDAC6, the “HDAC6 selectivity (fold)” value is given as over 79 fold and the IC50 is 0.126 µM. Moreover, the IC50 at human recombinant HDAC1 is over 10 µM.
On the same counts, the results for `C[C@@H]1CN(Cc2ccc(C(=O)NO)cc2)C[C@H](C)N1Cc1ccco1` [Compound 145, 4-(((3R,5S)-4-(furan-2-ylmethyl)-3,5-dimethylpiperazin-1-yl)methyl)-N-hydroxybenzamide] are 519 fold, 0.033 µM and 17.1 µM.
For the molecule `C[C@@H]1CN(Cc2ccc(C(=O)NO)cc2)C[C@H](C)N1C(=O)c1ccccc1C1=CCOCC1` [Compound 326, 4-(((3R,5S)-4-(2-(3,6-dihydro-2H-pyran-4-yl)benzoyl)-3,5-dimethylpiperazin-1-yl)methyl)-N-hydroxybenzamide], on human recombinant HDAC6, the “HDAC6 selectivity (fold)” value was over 172 fold and the IC50 amounted to 0.058 µM. Further, the IC50 on human recombinant HDAC1 was over 10 µM.
`C[C@@H]1CN(C(=O)c2cccc(-c3ccncc3)c2)C[C@H](C)N1Cc1ccc(C(=O)NO)cc1` [Compound 260, 4-(((2S,6R)-2,6-dimethyl-4-(3-(pyridin-4-yl)benzoyl)piperazin-1-yl)methyl)-N-hydroxybenzamide]: at human recombinant HDAC6, the “HDAC6 selectivity (fold)” value worked out at 3 fold and the half-inhibitory concentration (IC50) was 0.529 µM. For the same molecule, the IC50 on human recombinant HDAC1 was found to be 1.7 µM.
The like results for `C[C@@H]1CN(Cc2ccccc2)C[C@H](C)N1Cc1ccc(C(=O)NO)cc1` [Compound 081, 4-(((2S,6R)-4-benzyl-2,6-dimethylpiperazin-1-yl)methyl)-N-hydroxybenzamide] were, in that order, 78 fold, 0.144 µM and 11.2 µM.
